Data taken from patent US11230535B2, “CFTR regulators and methods of use thereof” (THE REGENTS OF THE UNIVERSITY OF CALIFORNIA, priority 2015, dated 2022).
Where two headings read alike, the source gives them in different places. Positions of bridges follow the written chain, without caps; N, C: chain ends. Residues, ends and D or L forms follow the SMILES beside them.

Key:
[1] = tested on: CFTR activity at the ocular surface; assay: Ocular surface potential difference (PD) in living mice; assay type: in vivo, mouse; settings: CF mice lacking functional CFTR
Protocol: (§1) Open-circuit transepithelial PD were measured continuously in anesthetized mice in response to serial perfusions of different solutions over the ocular surface, as described (21). Mice were anesthetized with Avertin (2,2,2-tribromoethanol, 125 mg/kg intraperitoneal, Sigma-Aldrich, St. Louis, Mo., USA), and core temperature was maintained at 37° C. using a heating pad. Eyes were oriented with the cornea and conjunctiva facing upward and exposed by retracting the eyelid with cross-action forceps. Solutions were isosmolar (320±10 mOsM; compositions provided in ref. 21) and contained 10μ[…] Qindomethacin to prevent CFTR activation by prostaglandins. The ocular surface was perfused at 6 mL/min through plastic tubing using a multireservoir gravity pinch-valve system (ALA Scientific, Westbury, N.Y., USA) and variable-flow peristaltic pump (medium flow model; Fisher Scientific, Fair Lawn, N.J., USA). A probe catheter was fixed 1 mm above the cornea using a micropositioner and a suction cannula was positioned 3 mm from the orbit. The measuring electrode was in contact to the perfusion catheter and connected to a high-impedance voltmeter (IsoMilivolt Meter; WPI). The reference electrode was grounded via a winged 21-gauge needle filled with isosmolar saline, and inserted subcutaneously in the abdomen. Measuring and reference electrodes consisted of Ag/AgCl with 3 M KCl agar bridges.
An open-circuit potential difference (PD) method developed in our lab was used to evaluate compound activity at the ocular surface in vivo, as depicted in FIG. 3A (21). Cl^− channel function was quantified by measuring PD during continuous perfusion of the ocular surface with a series of solutions that imposed a transepithelial Cl^− gradient and contained various channel agonists and/or inhibitors. The ocular surface was first perfused with isosmolar saline to record the baseline PD. Amiloride was then added to the perfusate, followed by exchange to a low Cl^− solution in which Cl^− with an impermeant anion, gluconate. These maneuvers allow for direct visualization of CFTR activation in response to addition of candidate CFTR activators.
as §1, with “Ocular surface potential difference measurements. Open-circuit” for “Open-circuit”, “indomethacin” for “Qindomethacin”, “Measuring and reference electrodes consisted of Ag/AgCl with 3 M KCl agar bridges.” left out

human wild-type CFTR [2] = biological target: T1, human wild-type CFTR (Homo sapiens, UniProt P13569); assay: Short-circuit current in FRT cells expressing wild-type human CFTR; assay type: cell-based; parameters: expressed in transfected cells; settings: 100% = 20 μM forskolin
T1 sequence (P13569 whole entry): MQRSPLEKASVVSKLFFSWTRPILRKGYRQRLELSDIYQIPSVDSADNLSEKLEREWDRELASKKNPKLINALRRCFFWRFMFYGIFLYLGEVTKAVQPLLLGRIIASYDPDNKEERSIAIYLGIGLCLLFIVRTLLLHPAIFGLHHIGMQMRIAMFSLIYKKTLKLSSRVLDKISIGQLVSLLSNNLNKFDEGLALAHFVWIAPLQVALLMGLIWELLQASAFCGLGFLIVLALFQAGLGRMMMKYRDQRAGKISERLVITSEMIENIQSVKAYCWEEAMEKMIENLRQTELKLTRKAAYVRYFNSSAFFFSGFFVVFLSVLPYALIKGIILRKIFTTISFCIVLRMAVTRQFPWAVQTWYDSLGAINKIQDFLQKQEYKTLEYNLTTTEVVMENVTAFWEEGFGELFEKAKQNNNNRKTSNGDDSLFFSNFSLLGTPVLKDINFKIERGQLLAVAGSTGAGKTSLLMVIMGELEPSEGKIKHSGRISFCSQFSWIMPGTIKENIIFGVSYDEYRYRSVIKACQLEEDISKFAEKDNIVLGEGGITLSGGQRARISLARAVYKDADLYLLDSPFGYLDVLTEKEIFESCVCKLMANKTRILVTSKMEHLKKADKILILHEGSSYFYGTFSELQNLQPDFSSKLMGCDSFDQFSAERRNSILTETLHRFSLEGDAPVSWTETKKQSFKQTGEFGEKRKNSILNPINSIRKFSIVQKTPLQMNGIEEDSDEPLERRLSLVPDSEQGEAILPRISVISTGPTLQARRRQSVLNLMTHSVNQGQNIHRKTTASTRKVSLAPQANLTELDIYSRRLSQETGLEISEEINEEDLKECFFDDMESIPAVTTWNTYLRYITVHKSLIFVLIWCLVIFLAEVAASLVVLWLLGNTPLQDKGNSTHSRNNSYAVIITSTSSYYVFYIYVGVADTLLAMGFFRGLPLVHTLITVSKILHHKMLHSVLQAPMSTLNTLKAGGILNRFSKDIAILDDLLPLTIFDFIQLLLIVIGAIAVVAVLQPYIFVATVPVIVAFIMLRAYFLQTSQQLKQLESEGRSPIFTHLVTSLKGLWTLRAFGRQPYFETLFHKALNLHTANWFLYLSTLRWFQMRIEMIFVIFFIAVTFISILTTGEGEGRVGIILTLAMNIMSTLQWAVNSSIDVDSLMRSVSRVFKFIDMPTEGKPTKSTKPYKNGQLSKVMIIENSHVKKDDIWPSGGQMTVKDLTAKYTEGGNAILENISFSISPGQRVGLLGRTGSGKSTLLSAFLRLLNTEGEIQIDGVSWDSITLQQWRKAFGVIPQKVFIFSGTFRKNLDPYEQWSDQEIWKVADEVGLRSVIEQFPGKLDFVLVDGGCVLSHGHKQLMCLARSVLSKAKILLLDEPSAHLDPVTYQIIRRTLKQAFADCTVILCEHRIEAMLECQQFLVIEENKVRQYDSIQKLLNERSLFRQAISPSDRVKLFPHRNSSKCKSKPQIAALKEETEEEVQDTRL
Protocol: Short-circuit current was measured in FRT cells stably expressing wild-type human CFTR cultured on porous filters as described. The basolateral solution contained 130 mM NaCl, 2.7 mM KCl, 1.5 mM KH2PO4, 1 mM CaCl2, 0.5 mM MgCl2, 10 mM glucose, and 10 mM Na-HEPES (pH 7.3, 37° C.). In the apical solution 65 mM NaCl was replaced by Na gluconate, and CaCl2 was increased to 2 mM, and the basolateral membrane was permeabilized with 250 μg/ml amphotericin B. Short-circuit current was measured in freshly harvested adult mouse colon at 37° C. using symmetrical Krebs-bicarbonate buffer.
(§2) Fischer rat thyroid (FRT) cells stably expressing wild-type human CFTR were cultured on Snapwell inserts (Corning Costar, Corning N.Y., USA) for short-circuit current (Isc) measurements. After 6-9 days in culture, when the transepithelial resistance was >1000 Ω/cm^2, the inserts were mounted in an Ussing chamber system (World Precision Instruments, Sarasota, Fla., USA). The basolateral solution contained 130 mM NaCl, 2.7 mM KCl, 1.5 mM KH2PO4, 1 mM CaCl2, 0.5 mM MgCl2, 10 mM glucose, and 10 mM Na-HEPES (pH 7.3). In the apical bathing solution, 65 mM NaCl was replaced by Na gluconate, and CaCl2 was increased to 2 mM. Both solutions were bubbled with air and maintained at 37° C. The basolateral membrane was permeabilized with 250 μg/ml amphotericin B (26, 27). Hemichambers were connected to a DVC-1000 voltage clamp via Ag/AgCl electrodes and 3 M KCl agar bridges for Isc recording.
Short-circuit current measurement. Short-circuit current was measured in FRT cells stably expressing wild-type human CFTR cultured on porous filters as described. The basolateral solution contained 130 mM NaCl, 2.7 mM KCl, 1.5 mM KH2PO4, 1 mM CaCl2, 0.5 mM MgCl2, 10 mM glucose, and 10 mM Na-HEPES (pH 7.3, 37° C.). In the apical solution 65 mM NaCl was replaced by Na gluconate, and CaCl2 was increased to 2 mM, and the basolateral membrane was permeabilized with 250 μg/ml amphotericin B. Short-circuit current was measured in freshly harvested adult mouse colon at 37° C. using symmetrical Krebs-bicarbonate buffer.
as §2, with “Short-circuit current. Fischer” for “Fischer”
Short-circuit current measurement. Short-circuit current measurements were done as described. Briefly, Snapwell (Corning Costar, Corning, N.Y.) inserts containing CFTR-expressing FRT cells or human bronchial epithelial cells were mounted in Ussing chambers (Physiological Instruments, San Diego, Calif.). For FRT cells the hemichambers were filled with 5 ml of HCO3^−-buffered solution (basolateral) and half-Cl^− solution (apical), and the basolateral membrane was permeabilized with 250 μg/ml amphotericin B. Symmetrical HCO3^−-buffered solutions were used for human bronchial epithelial cells. Solutions were bubbled with 95% O2/5% CO2 and maintained at 37° C., and short-circuit current was measured on a DVC-1000 voltage clamp (World Precision Instruments Inc., Sarasota, Fla.) using Ag/AgCl electrodes and 3 M KCl agar bridges.

human wild-type CFTR [3] = biological target: T1, human wild-type CFTR; assay: Cell-based plate reader (YFP iodide influx) assay of CFTR function; parameters: expressed in transfected cells; host or cells: Fischer rat thyroid (FRT) cells stably co-expressing YFP-H148Q; settings: commercial analogs
Protocol: The initiate rate of I^− influx was computed by determined using exponential regression. All compound plates contained negative controls (DMSO vehicle) and positive controls (20 μM forskolin).
High-throughput screening. […] The initiate rate of I^− influx was computed by determined using exponential regression. All compound plates contained negative controls (DMSO vehicle) and positive controls ([…] forskolin).
Platereader assays of chloride channel function. CFTR activity was assayed as described. […] I^− influx was measured in a plate reader with initial baseline read for 2 s and then for 12 s after rapid addition of an I^−-containing solution. TMEM16A activity was assayed similarly as described using FRT cells co-expressing YFP and TMEM16A. Activity of non-TMEM16A CaCC was assayed as described in HT-29 cells expressing YFP. In each assay initial rates of I^− influx were computed as a linear measure of channel function.

constipation patients = settings: cited from earlier work
loperamide-treated mice = assay: Loperamide-induced mouse model of constipation (3-h stool weight, pellet number, water content); settings: oral 0.5 mg/kg, loperamide-treated mice

| CFTR activation, Vmax (human wild-type CFTR [2]) | % Activation (human wild-type CFTR [3]; FRT cells with YFP and wildtype CFTR, 125 nM forskolin) | EC50 (human wild-type CFTR [3]; read-out: EC50 (full-dose response assay, compounds >80% activation)) | SMILES | change in ocular surface PD in CF mice [1] | patients in whom the drug was effective (constipation patients; chronic constipation patients) | stool output response as % of the maximal CFTRact-J027 response (loperamide-treated mice) | patients in whom the drug was effective (constipation patients; IBS-C patients) |
| --- | --- | --- | --- | --- | --- | --- | --- |
| ~50 % Vmax | 105% | 70 nM | CNc1nc(Nc2ccc([N+](=O)[O-])cc2)nc(OCC(F)(F)C(F)F)n1 [K032] | no changes in PD | – | – | – |
| – | – | – | C[C@@H]1NC(=O)[C@@H]2CCCN2C(=O)[C@H](CC(N)=O)NC(=O)[C@@H]2CSSC[C@H](N)C(=O)N[C@H]3CSSC[C@H](NC1=O)C(=O)N[C@@H]([C@@H](C)O)C(=O)NCC(=O)N[C@H](C(=O)N[C@@H](Cc1ccc(O)cc1)C(=O)O)CSSC[C@H](NC(=O)[C@H](Cc1ccc(O)cc1)NC(=O)[C@H](CCC(=O)O)NC3=O)C(=O)N2 [linaclotide, reference compound] (H-CCEYCCNPACTGCY-OH; disulfide 1-6, 2-10, 5-13) | – | ~20% | 35% | – |
| – | – | – | CCCCC(F)(F)[C@@]1(O)CC[C@H]2[C@@H](CC(=O)[C@@H]2CCCCCCC(=O)O)O1 [lubiprostone, reference compound] | – | – | 50% | ~13% |
